Experimental data: US9539191B2, “Composition for cosmetic use suitable to produce a pigmentation effect on hair” (Giuliani S.P.A., priority 2013, dated 2017)

Tests used:
Tyrosinase = assay: Enzymatic assay of tyrosinase (L-tyrosine substrate, absorbance 280 nm); assay type: biochemical; conditions: compound 5 mM; for Increment in enzymatic activity (%): % enzymatic activity - 100; for Enzymatic activity (%): compared to activity of the enzyme without active compounds (100%)
Procedure: The following compounds with formulae (II), (III), (IV) and (V) were tested as defined above, all in a concentration of 5 mM:
Tyrosinase is a membrane glycoprotein that is expressed in melanosomes, specialised organelles in the endocytic pathway through which the synthesis and assembly of melanin takes place. The synthesis of melanin from tyrosine takes place in pigment-producing cells, namely melanocytes. Melanin produced in melanosomes is transferred to keratinocytes through said processes. Melanin is a polymer that absorbs light within a broad spectrum of wavelengths, and protects keratinocytes from the harmful effects of UV radiations. A peroxidase is involved in the first phase of the reaction, which converts the amino acid into […] alanine or DOPA. The enzyme tyrosinase is involved in the subsequent phase of the biosynthesis pathway that produces dopaquinone. Melanin is synthesised starting from precursors of tyrosine and DOPA, through the enzyme tyrosinase, which presents both […] and oxidase functions. Tyrosine is converted into L-DOPA (dihydroxyphenylalanine) and, then, into dopaquinone, which is red, until the brown melanin polymer is obtained. In a first branch of the pathway dopaquinone is converted into black polymeric melanins, while the reaction with cysteine forms a series of polymers that are similar among them and are called red polymeric melanins.
REAGENT A (potassium phosphate buffer, 50 mM, pH 6.5, 25° C.):
REGENT B (L-tyrosine solution 1 mM):
REAGENT C (tyrosinase solution):
Prepare a solution A+B as described below:
10 mL of Reagent A (potassium phosphate buffer 50 mM)
10 mL of Reagent B (L-tyrosine 1 mM)
Vortex the solution and, if necessary, restore pH 6.5, at 25° C. with HCl 1M or NaOH.
Prepare the solutions with the various concentrations of the compounds to be tested, and preserve at 4° C. until use.
Defrost the tyrosinase solution and keep it on ice in the dark until use.
Mix, at ambient temperature, the solution of potassium phosphate buffer (50 mM, pH 6.5), the above solution A+B and the solutions that include the compounds of the formula (I) to be tested.
Use the following parameters:
Measuring mode: absorbance;
Execution settings: 700 seconds.
First read the enzymatic activity of tyrosinase when there is only L-tyrosine to verify the actual enzyme/mL units and have a basic reference to later assess the effects of the compound examined on enzyme activity:
1 replicates for the blank test (one blank test for each concentration to be tested);
2 replicates for the test (one test for each concentration to be tested).
Prepare the mixtures in separate cuvettes, as described below:
Test the examined compounds with formulae (II), (III), (IV) and (V), as specified below: […]
Calculating the Inhibition or Induction of Enzymatic Activity
[formula] df=dilution factor (30 because 0.1 mL/3 mL tot) 0.001=change of A280 nm/min per unit of L-tyrosine at pH 6.5, 25° C. in a 3 mL reaction mixture; 0.1=volume (mL) of enzyme used Unit/mg solid=unit/mL of enzyme: mg solid/mL of enzyme Unit/mg protein=unit/mL of enzyme: mg protein/mL of enzyme Definition of unit=increment of A280 nm/min equal to 0.001, at 25° C., pH 6.5 in a 3 mL reaction volume containing L-tyrosine.
The percentage of enzymatic activity was calculated for each tested compound, compared to the activity of the enzyme (100% enzymatic activity) failing the presence of active compounds.
The increment percentage of enzymatic activity was later calculated (% enzymatic activity−100).

[1] = system: Hair follicles (HF) in anagen phase VI with normal pigmentation; assay: Hair pigmentation in organ-cultured human hair follicles (quantitative Masson-Fontana melanin stain); assay type: cell-based
Procedure: The skin of the normal human scalp was taken from a person who was submitted to routine facial lifting surgery, after obtaining their informed consent. All experiments were performed in compliance with the Helsinki principles, with the Ethics Committee approval.
N^1-methyl-spermidine in the invention or the carrier as such (control group) were administered once every time the culture medium was changed, namely every 48 hours. The control compound administered was spermidine at a concentration of 0.5 μM.
The Masson-Fontana stain was administered to ensure histochemical visibility of melanin in frozen sections. Melanin was stained as brown granules and the degree of pigmentation was assessed with the quantitative Masson-Fontana technique. (Ito N., Ito T., Kromminga A., Bettermann A., Takigawa M., Kees F., Straub R. H., and Paus R. (2005): Human hair follicles display a functional equivalent of the hypothalamic-pituitary-adrenal axis and synthesise cortisol. (FASEB J 19, 1332-4)
This method is a highly sensitive and reliable indicator of variations in melanin synthesis, as proven by assays of enzymatic activity, and the expression of standard tyrosinase. […]
The intensity of the stain was analysed in a defined reference region of the hair follicle's pigmentation unit using the software ImageJ (National Institute of Health).

Row | SMILES | Increment in enzymatic activity (%) (Tyrosinase) | Enzymatic activity (%) (Tyrosinase) | absolute pigmentation intensity in hair follicles compared to spermidine (Spd) ([1]; 0.5 μM vs spermidine 0.5 μM, FIG. 1) | melanin produced / (absolute) intensity of pigmentation in hair follicles compared to carrier ([1]; 0.5 and 1.5 μM, administered every 48 hours, Masson-Fontana stain, FIGS. 1 and 2)
1 | NCCCNCCCCNC1CCCCC1 [Cyclohexyl-spermidine, N-(3-aminopropyl)-N^1-cyclohexyl-1,4-butandiammine] | 35.31 | 135.31 |  | 
2 | CCNCCCCNCCCN [Ethyl-spermidine, N-(3-aminopropyl)-N^1-ethyl-1,4-butandiammine] | 21.50 | 121.50 |  | 
3 | CNCCCCNCCCN [Methyl-spermidine, N-(3-aminopropyl)-N^1-methyl-1,4-butandiammine] | 5.16 | 105.16 | higher increase in absolute pigmentation intensity | increase in melanin produced
4 | CCCNCCCCNCCCN [Propyl-spermidine, N-(3-aminopropyl)-N^1-propyl-1,4-butandiammine] | 31.29 | 131.29 |  | 
